biological target: Protein farnesyltransferase (Homo sapiens, UniProt P49354+P49356); assay: Inhibition of [3H]FPP incorporation into Ha-ras protein by Farnesyltransferase; assay type: functional

O=C(c1ccccc1Br)c1cn(Cc2c[nH]cn2)cc1-c1cccc2ccccc12 and O=C(c1ccccc1)c1cn(Cc2c[nH]cn2)cc1-c1cccc2ccccc12 are within 1.5-fold of each other in IC50: 88 nM for the first, 115 nM for the second.

Compared with Cc1ccc(C(=O)c2cn(Cc3c[nH]cn3)cc2-c2ccc3ccccc3c2)cc1, Cc1ccc(C(=O)c2cn(Cc3c[nH]cn3)cc2-c2cccc3ccccc23)cc1 is 35-fold lower in IC50: 2300 nM for the first, 65 nM for the second. The second is the more potent here.

First: O=C(c1ccc(Br)cc1)c1cn(Cc2c[nH]cn2)cc1-c1cccc2ccccc12
Second: O=C(c1ccc(Oc2ccccc2)cc1)c1cn(Cc2c[nH]cn2)cc1-c1cccc2ccccc12
The IC50 of the first is 2-fold higher: 32 nM for the first, 16 nM for the second.

Going from CSCC[C@H](NC(=O)c1ccc(CNCc2c[nH]cn2)cc1-c1ccccc1C)C(=O)O to Cc1ccc(C(=O)c2cn(Cc3c[nH]cn3)cc2-c2c3ccccc3cc3ccccc23)cc1, the IC50 rises from 1.4 nM to 470 nM (340-fold).

Cn1cncc1Cn1cc(C(=O)c2ccc(Oc3ccccc3)cc2)c(-c2cccc3ccccc23)c1 was tested, and the IC50 was 4.6 nM.

From ChEMBL document CHEMBL1133843, “3-Aryl-4-aryloyl-1-(1H-imidazol-5-yl)methylpyrrole, a novel class of farnesyltransferase inhibitors” (Bioorg Med Chem Lett, 2001)
